Results: patent US6656911B2, “Serine protease inhibitors” (Cortech, Inc., priority 1994, dated 2003)

Tests used:
[1] = system: polymorphoneucleocyte (PMN); test: Extracellular Matrix (ECM) degradation assay; type: cell-based; conditions: PMN's stimulated with opsonized zymosan, 4 hr at 37° C.; for inhibition at 1 µM / ECM DATA % Inhibition 1 uM: 1 uM inhibitor; for inhibition at 5 µM / ECM DATA % Inhibition 5 uM: 5 uM inhibitor
Procedure: Forty-eight well plates on which extracellular matrix had been established were supplied to Cortech by Dr. Simon's group at the State University of New York at Stony Brook. Briefly, the plates were prepared as follows: R22 rat heart smooth muscle cells were seeded into wells at 2.5×10^4 cells/cm. The cells were fed every 4 days with Eagle's Minimal Essential Media supplemented with fetal bovine serum, tryptose phosphate broth, cefotaxime and streptomycin. At confluence, daily supplements of 50 ug/ml ascorbic acid were added for 8 to 10 days during the synthesis of the ECM layer. [^35S]sulfate and [^3H]proline were also added to the culture media to incorporate radiolabel into the matrix. Cells were later lysed with 25 mM NH4OH. Plates were washed three times with water and once with phosphate-buffered saline containing 0.02% NaN3. Plates were stored at 4° C. until use.
Matrix degradation assays were performed as follows: 0.40 ml of Hanks balance salt solution (HBSS) containing 1 or 5 uM test inhibitor (final concentration; diluted from DMSO stock solution; <2% DMSO final concentration) was added to the wells. After 30 minutes, 50 ul of a polymorphoneucleocyte (PMN) suspension was added resulting in 5×10^5 cells/well. PMN's were stimulated with opsonized zymosan. Zymosan particles were washed and suspended in 0.5 ml human serum for 1 hr at 37° C., vortexing every 15 min. The particles were then washed three times with HBSS and added to wells at a ratio of 10 particles/PMN in a volume of 50 ul. After a 4 hr incubation at 37° C., a 100 ul aliquot of the supernatant was withdrawn for scintillation counting. Following removal of the remaining supernatant, the residual ECM was solubilized with 0.5 ml 2M NaOH. The amount of tritium in this solubilized ECM was accessed by scintillation. ECM degradation data are expressed as (soluble counts released/total ECM counts)—(basal counts released without PMN's/total ECM counts).

[2] = target: T1, human neutrophil elastase (HNE) (Homo sapiens, UniProt P08246); test: HNE Ki of CE compounds, tested as described in WO 96/16080; type: biochemical; conditions: read-out: HNE Ki
T1 sequence (P08246 30-267): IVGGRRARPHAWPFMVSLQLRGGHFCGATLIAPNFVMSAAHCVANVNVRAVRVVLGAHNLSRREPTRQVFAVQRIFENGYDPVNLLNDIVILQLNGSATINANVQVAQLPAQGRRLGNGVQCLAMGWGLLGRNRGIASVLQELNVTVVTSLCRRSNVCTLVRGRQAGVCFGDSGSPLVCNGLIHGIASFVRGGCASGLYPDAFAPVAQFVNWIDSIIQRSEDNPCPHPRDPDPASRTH

[3] = Blood level screening after oral dose; type: in vivo, Sprague-Dawley rats; conditions: rat, oral gavage 10 mg/kg; for concentration at 3 h / concentration at 1 h / concentration at 6 h: male, Sprague-Dawley, plasma; for concentration at 3 h: read-out: Plasma Levels (μM) 3 hr; for concentration at 1 h: read-out: Plasma Levels (μM) 1 hr; for concentration at 6 h: read-out: Plasma Levels (μM) 6 hr
In short: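 Unfasted male Sprague-Dawley rats received 10 mg/kg by oral gavage in PEG, PEG-400 or PEG:H2O:EtOH. Plasma was solvent-extracted and the inhibitor measured by HPLC or LC/MS.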

| Structure (SMILES) | inhibition at 1 µM [1] | inhibition at 5 µM [1] | Ki [2] | concentration at 3 h [3] | ECM DATA % Inhibition 1 uM [1] | ECM DATA % Inhibition 5 uM [1] | Plasma Levels (μM) 1 hr [3] | Plasma Levels (μM) 3 hr [3] | Plasma Levels (μM) 6 hr [3] | concentration at 1 h [3] | concentration at 6 h [3] |
| --- | --- | --- | --- | --- | --- | --- | --- | --- | --- | --- | --- |
| Cc1cccc(Cc2nnc(C(=O)C(NC(=O)CN3C(=O)C(N)N=C(c4ccccc4)c4ccccc43)C(C)C)o2)c1 [CE2134, (R,S)-3-Amino-2-oxo-5-phenyl-1,4,-benzodiazepine-N-[1-(2-[5-(3-methylbenzyl)-1,3,4-oxadiazolyl]carbonyl)-2-(S)-methylpropyl]acetamide] | 21.7% | 25.7% | 2 nM | 5.02 µM |  |  |  |  |  |  |  |
| Cc1cccc(Cc2nnc(C(=O)[C@@H](NC(=O)CN3C(=O)CN=C(c4ccccc4)c4ccccc43)C(C)C)o2)c1 [CE2157] | 9.96% | 13.4% | 1.4 nM | 3.81 µM |  |  |  |  |  |  |  |
| Cc1cccc(Cc2nnc(C(=O)[C@@H](NC(=O)CN3C(=O)N[C@H](CC(=O)N(C)C)C3=O)C(C)C)o2)c1 [CE2247, 4-(R)-(2-N,N-Dimethylcarboxamido)-2,5-imidazolidinedione-N-[1-(2-[5-(3-methylbenzyl)-1,3,4-oxadiazolyl]carbonyl)-2-(S)-methylpropyl]acetamide] |  |  | 62.4 nM |  | 13.3% | 21.2% | 1.017 µM | 0.572 µM | 0.186 µM |  |  |
| CC(C)[C@H](NC(=O)[C@@H]1CCCN1C(=O)[C@@H](NC(=O)OCc1ccccc1)C(C)C)C(=O)c1nnc(Cc2ccc(N(C)C)cc2)o1 [CE2100, (Benzyloxycarbonyl)-L-valyl-N-[1-(2-[5-(4-Dimethylaminobenzyl)-1,3,4-oxadiazolyl]carbonyl)-2-(S)-methylpropyl]-L-prolinamide] | 57.6% | 56.6% | 0.069 nM | 0.064 µM |  |  |  |  |  |  |  |
| CC(C)[C@H](NC(=O)[C@@H]1CCCN1C(=O)[C@@H](NC(=O)OCc1ccccc1)C(C)C)C(=O)c1noc(Cc2ccc3c(c2)OCO3)n1 [CE2178, (Benzyloxycarbonyl)-L-valyl-N-[1-(3-[5-(3,4-methylenedioxybenzyl)-1,2,4-oxadiazolyl]carbonyl)-2-(S)-methylpropyl]-L-prolinamide] |  | 34% | 0.29 nM | 0.185 µM |  |  |  |  |  |  |  |
| Cc1cccc(Cc2nnc(C(=O)C(NC(=O)C3Cc4cccc5c4N3C(=O)C(N)CC5)C(C)C)o2)c1 [CE2130, (2S,5S)-5-Amino-1,2,4,5,6,7-hexahydroazepino-[3,2,1]-indole-4-one-carbonyl-N-[1-(2-[5-(3-methylbenzyl)-1,3,4-oxadiazolyl]carbonyl)-(R,S)-2-methylpropyl]amide] | 16.3% | 29% | 2.1 nM | 0.162 µM |  |  |  |  |  |  |  |
| Cc1cccc(Cc2nnc(C(=O)[C@@H](NC(=O)CN3C(=O)NC4(CCCCC4)C3=O)C(C)C)o2)c1 [CE2241, 4-Spirocyclohexane-2,5-imidazolidinedione-N-[1-(2-[5-(3-methylbenzyl)-1,3,4-oxadiazolyl]carbonyl)-2-(S)-methylpropyl]acetamide] |  |  | 14 nM |  | 18.6% | 31.7% | 0.598 µM | 0.289 µM | 0.078 µM |  |  |
| Cc1cccc(Cc2nnc(C(=O)[C@@H](NC(=O)CN3C(=O)N[C@@H](C(C)C)C3=O)C(C)C)o2)c1 [CE2240, 4-(S)-(2-Isopropyl)-2,5-imidazolidinedione-N-[1-(2-[5-(3-methylbenzyl)-1,3,4-oxadiazolyl]carbonyl)-2-(S)-methylpropyl]acetamide] |  |  | 30 nM |  | 16.8% | 13.5% | 1.12 µM | 0.5 µM | 0.29 µM |  |  |
| Cc1cccc(Cc2nnc(C(=O)[C@@H](NC(=O)[C@@H]3CCCN3C(=O)[C@@H](NS(C)(=O)=O)C(C)C)C(C)C)o2)c1 [CE2163, Methylsulfonyl-L-valyl-N-[1-(2-[5-(3-methylbenzyl)-1,3,4-oxadiazolyl]carbonyl)-2-(S)-methylpropyl]-L-prolinamide] | 54.7% | 64% | 0.75 nM | 0.316 µM |  |  |  |  |  |  |  |
| Cc1cccc(Cc2nnc(C(=O)[C@@H](NC(=O)Cn3c(-c4ccccc4)ncc(N)c3=O)C(C)C)o2)c1 [CE2260, 2-[5-Amino-6-oxo-2-phenyl-1,6-dihydro-1-pyrimidinyl]-N-[1-(2-[5-(3-methylbenzyl)-1,3,4-oxadiazolyl]carbonyl)-2-(S)-methylpropyl]acetamide] | 68.3% | 59.7% | 0.39 nM | 3.05 µM |  |  |  |  |  | 3.53 µM | 1.89 µM |
| Cc1cccc(Cc2nnc(C(=O)C(NC(=O)CN3C(=O)C(Cc4ccccc4)N(CCN4CCOCC4)C3=O)C(C)C)o2)c1 [CE2184, 1-(N-Morpholinoethyl)-5-(S)-benzyl-2,4-imidazolidinedione-N-[1-(2-[5-(3-methylbenzyl)-1,3,4-oxadiazolyl]carbonyl)-2-(R,S)-methylpropyl]acetamide] | 30.5% | 32.4% | 8.2 nM | 0.57 µM |  |  |  |  |  |  |  |
| Cc1cccc(Cc2nnc(C(=O)[C@@H](NC(=O)CN3C(=O)CN=C(c4ccccc4N(C)C)c4ccccc43)C(C)C)o2)c1 [CE2258, 2-Oxo-5-phenyl-1,4-(2′-dimethylaminobenzodiazepine)-N-[1-(2-[5-(3-methylbenzyl)-1,3,4-oxadiazolyl]carbonyl)-2-(S)-methylpropyl]acetamide] |  |  | 3.7 nM |  | 42.9% | 38.1% | 1.624 µM | 1.5 µM | 1.212 µM |  |  |
| Cc1cccc(Cc2nnc(C(=O)[C@@H](NC(=O)CN3C(=O)CN=C(C4CCNCC4)c4ccccc43)C(C)C)o2)c1 [CE2233, 2-Oxo-5-(4-piperidinyl)-1,4-benzodiazepine-N-[1-(2-[5-(3-methylbenzyl)-1,3,4-oxadiazolyl]carbonyl)-2-(S)-methylpropyl]acetamide] | 54.7% | 55.4% | 41.6 nM | 0.065 µM |  |  |  |  |  | 0.07 µM | 0.036 µM |
| Cc1cccc(Cc2nnc(C(=O)[C@@H](NC(=O)CN3C(=O)N[C@H](CC(C)C)C3=O)C(C)C)o2)c1 [CE2246, 4-(R)-(2-Isobutyl)-2,5-imidazolidinedione-N-[1-(2-[5-(3-methylbenzyl)-1,3,4-oxadiazolyl]carbonyl)-2-(S)-methylpropyl]acetamide] |  |  | 18.5 nM |  | −2.3% | 32.6% | 1.182 µM | 0.837 µM | 0.496 µM |  |  |
| CC(C)[C@H](NC(=O)CN1C(=O)NC(c2ccccc2)(c2ccccc2)C1=O)C(=O)c1nnc(Cc2ccc3c(c2)OCO3)o1 [CE2259, 4,4-Diphenyl-2,5-imidazolidinedione-N-[1-(2-[5-(3,4-methylenedioxybenzyl)-1,3,4-oxadiazolyl]carbonyl)-2-(S)-methylpropyl]acetamide] |  |  | 3.3 nM |  | 43% | 59.6% | 0.597 µM | 0.846 µM | 0.502 µM |  |  |
| Cc1cccc(Cc2nnc(C(=O)[C@@H](NC(=O)CN3C(=O)NC(c4ccc(N(C)C)cc4)C3=O)C(C)C)o2)c1 (some centres unmarked) [CE2194] |  |  | 2.4 nM |  | 41% | 58.7% | 1.11 µM | 0.553 µM |  |  |  |
